Consider 20 compounds from patent publication US9822124B2, “Bicyclic heteroaromatic carboxamide compounds useful as Pim kinase inhibitors” (Incyte Corporation, priority 2014, dated 2017).

pIC50: −log10 of the molar value.

What all share (assay type): biochemical
One experiment addresses Pim-2 (Homo sapiens (Human), UniProt Q9P1W9). The experiment can be described thus: Pim-2 kinase assay (TR-FRET, Fluorescein-labeled CREBtide peptide substrate). As to conditions: 1 mM ATP; read-out: Pim2 IC50. As to the method:
Pim-2 kinase assay—20 μL reactions were run in white 384 well polystyrene plates dotted with 0.8 μL compound/DMSO in the assay buffer (50 mM Tris, pH 7.5, 0.01% Tween-20, 5 mM MgCl2, 0.01% BSA, 5 mM DTT), containing 0.05 μM Fluorescein-labeled CREBtide peptide substrate (Invitrogen PV3508), 1 mM ATP, and 1 nM enzyme (Invitrogen PV3649) for 2 h at 25° C. Reactions were stopped by addition of 10 μL TR-FRET Dilution Buffer (Invitrogen PV3574) with 30 mM EDTA and 1.5 nM LanthaScreen Tb-CREB pSer133 antibody (Invitrogen PV3566). After 30 min. incubation at room temperature, plates were read on a PHERAstar FS plate reader (BMG Labtech).
A general note: Time-resolved FRET reads energy transfer from a long-lived donor to a nearby acceptor.

Another experiment has as its target Pim-1 (Homo sapiens (Human), UniProt P11309). The experiment can be described thus: Pim-1 kinase assay (AlphaScreen, Biotin-labeled BAD peptide substrate). As to conditions: 1 mM ATP; read-out: Pim1 IC50. The protocol:
(§1) Pim-1 and Pim-3 kinase assays—20 μL reactions were run in white 384 well polystyrene plates dotted with 0.8 μL compound/DMSO in the assay buffer (50 mM Tris, pH 7.5, 0.01% Tween-20, 5 mM MgCl2, 0.01% BSA, 5 mM DTT), containing 0.05 μM Biotin-labeled BAD peptide substrate (AnaSpec 62269), 1 mM ATP, and […] (Pim-1, Invitrogen PV3503) or […] (Pim-3, Millipore 14-738) enzyme for 1 h at 25° C. Reactions were stopped by addition of 10 μL STOP Buffer (150 mM Tris, pH=7.5, 150 mM NaCl, 75 mM EDTA, 0.01% Tween-20, 0.3% BSA) supplemented with Phospho-Bad (Ser112) Antibody (Cell Signaling 9291) diluted 666-fold, and Streptavidin donor beads (PerkinElmer 6760002) along with Protein-A acceptor beads (PerkinElmer 6760137) at 15 μg/mL each. Supplementation of the STOP buffer with beads and stopping the reactions were done under reduced light. Prior to the stopping reactions STOP buffer with beads was preincubated for 1 h in the dark at room temperature. After stopping the reactions, plates were incubated for 1 h in the dark at room temperature before reading on a PHERAstar FS plate reader (BMG Labtech) under reduced light.

The target in the next experiment is Pim-3 (Homo sapiens (Human), UniProt Q86V86). Put plainly: Pim-3 kinase assay (AlphaScreen, Biotin-labeled BAD peptide substrate). As to conditions: 1 mM ATP; read-out: Pim3 IC50. The protocol: as §1

Chain of Pim-2 (Q9P1W9 whole entry): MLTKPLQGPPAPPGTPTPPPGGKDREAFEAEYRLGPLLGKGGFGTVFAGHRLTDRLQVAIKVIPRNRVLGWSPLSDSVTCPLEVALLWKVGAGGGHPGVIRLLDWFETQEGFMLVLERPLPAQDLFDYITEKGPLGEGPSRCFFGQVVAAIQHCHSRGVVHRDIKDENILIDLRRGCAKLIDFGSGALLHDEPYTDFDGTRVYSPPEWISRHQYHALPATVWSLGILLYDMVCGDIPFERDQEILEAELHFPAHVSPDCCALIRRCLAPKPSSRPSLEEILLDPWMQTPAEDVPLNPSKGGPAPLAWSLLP
Chain of Pim-1 (P11309 whole entry): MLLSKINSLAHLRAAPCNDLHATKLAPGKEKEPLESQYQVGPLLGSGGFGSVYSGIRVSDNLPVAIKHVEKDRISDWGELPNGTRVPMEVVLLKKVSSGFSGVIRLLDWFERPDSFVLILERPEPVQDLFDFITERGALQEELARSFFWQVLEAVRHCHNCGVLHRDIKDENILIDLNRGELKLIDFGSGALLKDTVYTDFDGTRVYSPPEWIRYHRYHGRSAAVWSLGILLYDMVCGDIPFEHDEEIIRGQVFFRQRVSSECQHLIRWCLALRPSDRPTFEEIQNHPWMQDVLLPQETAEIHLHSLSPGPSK

As to `C[C@@H]1C[C@H](N)CN(c2ccncc2NC(=O)c2ccc3occ(-c4cnoc4)c3n2)C1` [Example 28, N-(4-((3S,5R)-3-Amino-5-methylpiperidin-1-yl)pyridin-3-yl)-3-(isoxazol-4-yl)furo[3,2-b]pyridine-5-carboxamide], the pIC50 (commonly the negative decadic logarithm of the IC50, by convention in mol/L) at Pim-2 is less than 5.70; on Pim-1 it was no less than 8.00; on Pim-3 it was 7.30 to 8.00.

In the case of `C[C@@H]1C[C@H](N)CN(c2ccncc2NC(=O)c2ccc3occ(C4=COCCC4)c3n2)C1` [Example 33, N-(4-((3S,5R)-3-Amino-5-methylpiperidin-1-yl)pyridin-3-yl)-3-(3,4-dihydro-2H-pyran-5-yl)furo[3,2-b]pyridine-5-carboxamide], the results for the pIC50 on Pim-2, at Pim-1 and at Pim-3 were no less than 7.00, no less than 8.00 and no less than 8.00, respectively.

On to `C[C@@H]1C[C@H](N)CN(c2ccncc2NC(=O)c2ccc3occ(-c4cc(F)nc(F)c4)c3n2)C1` [Example 27, N-(4-((3S,5R)-3-Amino-5-methylpiperidin-1-yl)pyridin-3-yl)-3-(2,6-difluoropyridin-4-yl)furo[3,2-b]pyridine-5-carboxamide], for which the pIC50 on Pim-2 was less than 5.70; on Pim-1 it was 7.30 to 8.00; at Pim-3, less than 7.40.

In the case of `Cc1cc2nc(C(=O)Nc3cnccc3N3C[C@@H](N)[C@H](O)[C@@H](C)C3)ccc2s1` [Example 49, N-(4-((3R,4R,5S)-3-Amino-4-hydroxy-5-methylpiperidin-1-yl)pyridin-3-yl)-2-methylthieno[3,2-b]pyridine-5-carboxamide], the pIC50 at Pim-2 was 6.00 to 7.00; on Pim-1 it was no less than 8.00; on Pim-3, no less than 8.00.

Take `C[C@@H]1C[C@H](N)CN(c2ccncc2NC(=O)c2ccc3occ(C4CCN(C)CC4)c3n2)C1` [Example 24, N-(4-((3S,5R)-3-Amino-5-methylpiperidin-1-yl)pyridin-3-yl)-3-(1-methylpiperidin-4-yl)furo[3,2-b]pyridine-5-carboxamide]: the negative-log IC50 (pIC50) at Pim-2 was less than 5.70; on Pim-1, no less than 8.00; at Pim-3, less than 7.40.

Turning to `C[C@H]1CN(c2ccncc2NC(=O)c2ccc3oc(-c4c(F)cccc4F)cc3n2)C[C@@H](N)[C@@H]1O` [Example 8, N-(4-((3R,4R,5S)-3-Amino-4-hydroxy-5-methylpiperidin-1-yl)pyridin-3-yl)-2-(2,6-difluorophenyl)furo[3,2-b]pyridine-5-carboxamide], the pIC50 at Pim-2 is less than 5.70; on Pim-1, no less than 8.00; on Pim-3, 7.30 to 8.00.

As to `C[C@@H]1C[C@H](N)CN(c2ccncc2NC(=O)c2ccc3occ(-c4cncnc4)c3n2)C1` [Example 30, N-(4-((3S,5R)-3-Amino-5-methylpiperidin-1-yl)pyridin-3-yl)-3-(pyrimidin-5-yl)furo[3,2-b]pyridine-5-carboxamide], the results for the pIC50 at Pim-2, on Pim-1 and on Pim-3 were less than 5.70, 7.30 to 8.00 and less than 7.40, respectively.

Consider `COc1ccc(-c2coc3ccc(C(=O)Nc4cnccc4N4C[C@@H](N)[C@H](O)[C@@H](C)C4)nc23)cn1` [Example 14, N-(4-((3R,4R,5S)-3-Amino-4-hydroxy-5-methylpiperidin-1-yl)pyridin-3-yl)-3-(6-methoxypyridin-3-yl)furo[3,2-b]pyridine-5-carboxamide], for which the pIC50 was 5.00 to 6.00 on Pim-2, no less than 8.00 at Pim-1 and 7.30 to 8.00 at Pim-3.

As for `CC(C)c1coc2ccc(C(=O)Nc3cnccc3N3CCC[C@H](N)C3)nc12` [Example 36, (S)-N-(4-(3-Aminopiperidin-1-yl)pyridin-3-yl)-3-isopropylfuro[3,2-b]pyridine-5-carboxamide], the pIC50 at Pim-2 is no less than 7.00; at Pim-1, no less than 8.00; on Pim-3, no less than 8.00.

With `C[C@@H]1C[C@H](N)CN(c2ccncc2NC(=O)c2ccc3oc(-c4ccc(N5CCOCC5)nc4)cc3n2)C1` [Example 5, N-(4-((3S,5R)-3-Amino-5-methylpiperidin-1-yl)pyridin-3-yl)-2-(6-morpholinopyridin-3-yl)furo[3,2-b]pyridine-5-carboxamide], the pIC50 is 5.00 to 6.00 at Pim-2, no less than 8.00 on Pim-1 and no less than 8.00 at Pim-3.

Turning to `COc1cc(F)c(-c2cnn3ccc(C(=O)Nc4cnccc4[C@@H]4C[C@H](C)C[C@H](N)C4)nc23)c(F)c1` [Example 84, N-{4-[(1R,3S,5S)-3-Amino-5-methylcyclohexyl]pyridin-3-yl}-3-(2,6-difluoro-4-methoxyphenyl)pyrazolo[1,5-a]pyrimidine-5-carboxamide], the results for the pIC50 at Pim-2, on Pim-1 and on Pim-3 were no less than 7.00, no less than 8.00 and no less than 8.00, respectively.

Regarding `CCc1coc2ccc(C(=O)Nc3cnccc3N3C[C@@H](N)[C@H](O)[C@@H](C)C3)nc12` [Example 15, N-(4-((3R,4R,5S)-3-Amino-4-hydroxy-5-methylpiperidin-1-yl)pyridin-3-yl)-3-ethylfuro[3,2-b]pyridine-5-carboxamide], the pIC50 on Pim-2 was no less than 7.00; on Pim-1 it was no less than 8.00; on Pim-3 it was no less than 8.00.

On to `COc1ccc(-c2cc3nc(C(=O)Nc4cnccc4N4C[C@H](C)C[C@H](N)C4)ccc3s2)cn1` [Example 55, N-(4-((3S,5R)-3-Amino-5-methylpiperidin-1-yl)pyridin-3-yl)-2-(6-methoxypyridin-3-yl)thieno[3,2-b]pyridine-5-carboxamide], for which the pIC50 on Pim-2 was 6.00 to 7.00; on Pim-1, no less than 8.00; on Pim-3 it was no less than 8.00.

As to `C[C@@H]1C[C@H](N)CN(c2ccncc2NC(=O)c2ccc3sc(C4CC4)cc3n2)C1` [Example 59, N-(4-((3S,5R)-3-Amino-5-methylpiperidin-1-yl)pyridin-3-yl)-2-cyclopropylthieno[3,2-b]pyridine-5-carboxamide], the pIC50 at Pim-2 was no less than 7.00; at Pim-1, no less than 8.00; on Pim-3 it was no less than 8.00.

In the case of `COc1cc(F)c(-c2cc3nc(C(=O)Nc4cnccc4N4C[C@H](C)C[C@H](N)C4)ccc3s2)c(F)c1` [Example 57, N-(4-((3S,5R)-3-Amino-5-methylpiperidin-1-yl)pyridin-3-yl)-2-(2,6-difluoro-4-methoxyphenyl)thieno[3,2-b]pyridine-5-carboxamide], the pIC50 on Pim-2 is 6.00 to 7.00; at Pim-1 it was no less than 8.00; at Pim-3 it was no less than 8.00.

As for `COc1ccc(-c2coc3ccc(C(=O)Nc4cnccc4N4C[C@H](C)C[C@H](N)C4)nc23)cn1` [Example 23, N-(4-((3S,5R)-3-Amino-5-methylpiperidin-1-yl)pyridin-3-yl)-3-(6-methoxypyridin-3-yl)furo[3,2-b]pyridine-5-carboxamide], the pIC50 on Pim-2 is 5.00 to 6.00; at Pim-1, no less than 8.00; at Pim-3 it was 7.30 to 8.00.

Regarding `CC(C)c1cc2nc(C(=O)Nc3cnccc3N3C[C@H](C)C[C@H](N)C3)ccc2o1` [Example 2, N-{4-[(3S,5R)-3-Amino-5-methylpiperidin-1-yl]pyridin-3-yl}-2-isopropylfuro[3,2-b]pyridine-5-carboxamide], the negative-log IC50 (pIC50) on Pim-2 was 6.00 to 7.00; on Pim-1 it was 7.30 to 8.00; on Pim-3 it was no less than 8.00.

As for `COc1ccc(-c2cc3nc(C(=O)Nc4cnccc4N4C[C@@H](N)[C@H](O)[C@@H](C)C4)ccc3o2)cn1` [Example 7, N-(4-((3R,4R,5S)-3-Amino-4-hydroxy-5-methylpiperidin-1-yl)pyridin-3-yl)-2-(6-methoxypyridin-3-yl)furo[3,2-b]pyridine-5-carboxamide], the pIC50 is less than 5.70 at Pim-2, no less than 8.00 on Pim-1 and no less than 8.00 at Pim-3.

As to `C[C@@H]1C[C@H](N)CN(c2ccncc2NC(=O)c2ccc3occ(C4CCOC4)c3n2)C1` (mixture of isomers) [Example 31, N-(4-((3S,5R)-3-Amino-5-methylpiperidin-1-yl)pyridin-3-yl)-3-(tetrahydrofuran-3-yl)furo[3,2-b]pyridine-5-carboxamide], the pIC50 on Pim-2 was 6.00 to 7.00; at Pim-1, no less than 8.00; on Pim-3, no less than 8.00.

Regarding `C[C@H]1CN(c2ccncc2NC(=O)c2ccc3occ(-c4ccccc4F)c3n2)C[C@@H](N)[C@@H]1O` [Example 12, N-(4-((3R,4R,5S)-3-Amino-4-hydroxy-5-methylpiperidin-1-yl)pyridin-3-yl)-3-(2-fluorophenyl)furo[3,2-b]pyridine-5-carboxamide], the pIC50 is 6.00 to 7.00 at Pim-2, no less than 8.00 on Pim-1 and no less than 8.00 at Pim-3.
